“Also recorded” adds a separate entry of the source.
How the values were obtained:
[1] = test system: carcinogen-induced epidermoid carcinomas; settings: in vivo; cited from earlier work
[2] = Color matching with COLOR-AID swatchbook; format: physicochemical; settings: 1% β carotene, ⊕ darker, ⊖ paler than swatch
Method: Creams containing cyclodextrin-complexed β carotene and uncomplexed β carotene were prepared by adding the respective carotene preparation to one or more of several different commercially available creams. The commercial creams used include LUBRIDERM, NOXZEMA, POND'S hand cream, POND'S Cold Cream, and NIVEA moisturizing cream. The amount of complex needed to achieve a β carotene content of 1% by weight was calculated using the measurement of percent loading for the particular complex, and this amount was added to the cream as purchased. Control samples contained 1% uncomplexed β carotene by weight of the cream. […] Since the amount of β carotene by weight is the same in all the cream samples, including those to which β carotene was added in pure form and those to which the β carotene was added in the form of β carotene/cyclodextrin complex, differences in color intensity and hue are not ascribable to a simple dilution effect.
The color differences among complexed and uncomplexed β carotene and among creams containing complexed vs. uncomplexed β carotene are here characterized according to the COLOR-AID swatchbook.
In the present case, color matching was performed under fluorescent lighting of the full-spectrum type.

[3] = Color matching with COLORCURVE swatches; format: physicochemical; settings: cream A, same set of samples as Table I
From the text: In the COLORCURVE system, colors are scaled on a 3-dimensional scheme. One dimension, which for convenience here will be termed the vertical dimension, is value, defined more or less according to Munsell (op cit). The two dimensions of each plane are hue and intensity or saturation. The "hues" of the COLORCURVE system are the four primary colors of visible light: red, yellow, green and blue. Like the COLOR-AID system, the COLORCURVE system provides coded swatches for color matching. Each coded color in the COLORCURVE system is defined by light reflectance values, tristimulus values, and L*a*b* values, these being colorimetric parameters known in the art.
In the COLORCURVE code, the first number specifies the level, that is, the value of the equivalent gray tone; the level numbers increase from darker values to lighter values. For example, Level 55 colors are paler than Level 50 colors, which in turn are paler than Level 45 colors. The second and third codes each consist of a letter followed by a single-digit number. The letter identifies one of four hues (R-red, Y-yellow, B-blue, and G-green, these being the four "primary" colors in light), and the number describes the intensity of the hue. Thus, L40 R3 Y2 specifies value Level 40, red hue saturation level of 3, and yellow hue saturation level of 2 (where increasing numbers from 1 to 8 designate increasing saturation levels). […]

[4] = Comparative solubility in skin cream with different solubilization mixtures; format: physicochemical; settings: summary of Tables V and VI
From the text: The relative scale used was from 1 = completely nonsoluble, precipitate
formed, to 10 = completely soluble, no precipitate or suspension visible.
In all cases the carotene was mixed with Solvent #1 prior to mixing with
Solvent #2. This mixture was in turn combined with LUBRIDERM skin cream,

[5] = Absorbance loss at 450 nm of β-carotene/alpha-cyclodextrin with cysteine after 21 days; format: physicochemical; settings: After 21 days at ambient conditions; UV-Vis
Method: As further described below, various amounts of cysteine were used. Spectroscopic measurements were then made of Samples C, D, E, F (Table VIII), and of a sample consisting of uncomplexed beta-carotene, which was used as a control group.
The results were measured as percent of absorbance loss at 450 nm. The percent of absorbance loss measures the intensity of absorbance. In turn, intensity of absorbance is directly correlated to oxidation and decomposition of beta-carotene.

[6] = Aqueous solution of carotenoid with cyclodextrin, visible precipitate; format: physicochemical
Method: Twenty milligrams of β carotene is mixed with eighty milligrams (abbreviated "mg" hereinafter) of β cyclodextrin. The mixture is then added to 0.5 milliliters (hereinafter abbreviated "ml") of a buffered saline solution, and thoroughly mixed.

[7] = Color and texture of prepared compositions and creams; format: physicochemical
Method: 50 milligrams of β carotene were added to 50 milligrams of vitamin E (as DL-alpha tocopherol acid succinate). To this mixture were added 50 milligrams of β cyclodextrin and 50 milligrams of gelatin derived from bovine skin (bloom 225, type III). […] Next, 1 milliliter of D20 and 1 milliliter of glycerine were added, in that order.
The mixture #1 was then added to 1 milliter of a commercial skin cream, LUBRIDERM, which contains water, mineral oil, petrolatum, sorbitol, lanolin, lanolin alcohol, triethanolamine, cetyl alcohol, butylparaben, methylparaben, propylparaben, and sodium chloride, in order of descending amount.
50 milligrams of β carotene were mixed thoroughly with 50 milligrams of β cyclodextrin. One milliliter of distilled H2 O (d-H2 O) was added to the mixture of carotene and cyclodextrin. […] Fifty milligrams of Vitamin E succinate (crystalline) were then added. […] Next, 1 milliliter of glycerine was added, followed by 150 milligrams of gelatin. […] The same skin cream base was added to composition 2 as in example 1, in the same amount.
Glycerine (1 milliliter) and/or gelatin (50 mg) were added to the mixture, followed by 1 milliliter of LUBRIDERM brand skin cream.

[8] = visual
Method: Creams containing cyclodextrin-complexed β carotene and uncomplexed β carotene were prepared by adding the respective carotene preparation to one or more of several different commercially available creams. The commercial creams used include LUBRIDERM, NOXZEMA, POND'S hand cream, POND'S Cold Cream, and NIVEA moisturizing cream. The amount of complex needed to achieve a β carotene content of 1% by weight was calculated using the measurement of percent loading for the particular complex, and this amount was added to the cream as purchased. Control samples contained 1% uncomplexed β carotene by weight of the cream.

[9] = test system: DMBA induced squamous cell carcinoma; settings: topical […] solution in mineral oil; cited from earlier work
human oral cancer cells = settings: in vitro; cited from earlier work
oral carcinoma cell = settings: in at least some cases; cited from earlier work
colon polyps = settings: humans; cited from earlier work
colon tumors = settings: animals; cited from earlier work

For `Cc1c(C)c2c(c(C)c1O)CCC(C)(CCCC(C)CCCC(C)CCCC(C)C)O2` (stereo not drawn) [Vitamin E (alpha tocopherol), alpha tocopherol], the “inhibition of development of carcinogen-induced epidermoid carcinomas” value [1] is listed as “inhibit the development of carcinogen-induced epidermoid carcinomas, and in some cases to completely prevent their growth”.
In the case of `CC1=C(/C=C/C(C)=C/C=C/C(C)=C/C=C/C=C(C)/C=C/C=C(C)/C=C/C2=C(C)CCCC2(C)C)C(C)(C)CCC1` [β-carotene], the “COLOR-AID code, LUBRIDERM” value [2] is reported as “RO-P2-1⊕”, the “COLOR-AID code, PONDS” value ([2]; PONDS hand/skin cream) is reported as “O-S1⊕” and the “COLORCURVE code, A” value [3] is reported as “L50 R3YS; also recorded: L55 R3YS”. The “effect of mixing with βCD on solubility in LUBRIDERM skin cream” value [4] was “significantly increases its solubility”, the “% Abs. Loss (at 450 nm)” value [5] was 42% and the “visible precipitate in aqueous solution” value ([6]; 20 mg β carotene with 80 mg β cyclodextrin, 0.5 ml buffered saline into 100 ml distilled water) was “clear solution with no visible precipitate”. For the same compound, the “visible precipitate in aqueous solution” value ([6]; lesser amount or no cyclodextrin) was “red-brown precipitate”, the “texture of composition or cream” value ([7]; final cream) was “does not produce undesirable color changes or grainy textures” and the “appearance of skin cream with β carotene (previous attempts)” value ([7]; uncomplexed β carotene) was “unpleasant mustard-like appearance”. For the same compound, the color of powder [8] was “deep, red to orange-red color”, the “number and sizes of tumors” value [9] was “reduced the number and sizes of tumors” and the “inhibition of human oral cancer cells” value (human oral cancer cells) was “inhibit human oral cancer cells in vitro”. For the same compound, the “selective killing of tumor cells over normal cells” value (human oral cancer cells) was “preferentially kill tumor cells over normal (non-tumor) cells” and the “tumor inhibitory effects vs Vitamin A” value (oral carcinoma cell) was “superior to Vitamin A in its tumor inhibitory effects”.
In the case of `CC1=C(CC(=O)O)c2cc(F)ccc2/C1=C\c1ccc([S+](C)[O-])cc1` (stereo not drawn) [Sulindac, cis-5-fluoro-2-methyl-1-[p-(methyl-sulfinyl)benzylidene]indene-3-acetic acid], the “regression of colon polyps” value (colon polyps) is given as “cause regression of colon polyps in humans” and the “growth of colon tumors” value (colon tumors) is given as “inhibits growth of colon tumors in animals”.
